# PubChem BioAssay (NCI)
#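 Each compound was tested at five concentrations against cells in 96-well plates for 48 hours. TGI is the concentration that stops growth completely.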
# Assays:
# Assay in all cases: inhibition of tumour cell growth, NCI panel, 48 h
# RXF 393 renal = tested on: RXF 393 renal
# MDA-MB-435 = tested on: MDA-MB-435
# NCI-H226 lung = tested on: NCI-H226 lung
# M14 melanoma = tested on: M14 melanoma
# SNB-19 CNS = tested on: SNB-19 CNS
# SK-MEL-5 melanoma = tested on: SK-MEL-5 melanoma
# OVCAR-3 ovarian = tested on: OVCAR-3 ovarian
# SF-539 CNS = tested on: SF-539 CNS
# HCC-2998 colon = tested on: HCC-2998 colon
# HS 578T breast = tested on: HS 578T breast
# MOLT-4 leukemia = tested on: MOLT-4 leukemia
# SK-MEL-28 melanoma = tested on: SK-MEL-28 melanoma
# CAKI-1 renal = tested on: CAKI-1 renal
# MCF7 breast = tested on: MCF7 breast
# OVCAR-5 ovarian = tested on: OVCAR-5 ovarian
# RPMI-8226 leukemia = tested on: RPMI-8226 leukemia
# NCI-H23 lung = tested on: NCI-H23 lung
# 786-0 renal = tested on: 786-0 renal
# HOP-92 NSCLC = tested on: HOP-92 NSCLC
# DLD-1 colon = tested on: DLD-1 colon
SMILES,TGI (RXF 393 renal) [µM],TGI (MDA-MB-435) [µM],TGI (NCI-H226 lung) [µM],TGI (M14 melanoma) [µM],TGI (SNB-19 CNS) [µM],TGI (SK-MEL-5 melanoma) [µM],TGI (OVCAR-3 ovarian) [µM],TGI (SF-539 CNS) [µM],TGI (HCC-2998 colon) [µM],TGI (HS 578T breast) [µM],TGI (MOLT-4 leukemia) [µM],TGI (SK-MEL-28 melanoma) [µM],TGI (CAKI-1 renal) [µM],TGI (MCF7 breast) [µM],TGI (OVCAR-5 ovarian) [µM],TGI (RPMI-8226 leukemia) [µM],TGI (NCI-H23 lung) [µM],TGI (786-0 renal) [µM],TGI (HOP-92 NSCLC) [µM],TGI (DLD-1 colon) [µM]
CCOC(CCNCC(OCC)OCC)OCC,> 10,> 10,> 10,> 10,> 10,> 10,> 10,> 10,> 10,> 10,> 10,> 10,> 10,> 10,> 10,> 10,> 10,> 10,> 10,
CC(C)(C)OC(=O)NCC(O)CNC(=O)OC(C)(C)C,> 100,> 100,> 100,> 100,> 100,> 100,> 100,> 100,> 100,> 100,> 100,> 100,> 100,> 100,> 100,> 100,> 100,> 100,> 100,
O/N=C1/COC(C(F)(F)F)(C(F)(F)F)C1,> 100,> 100,> 100,> 100,> 100,> 100,> 100,> 100,> 100,> 100,> 100,> 100,> 100,> 100,> 100,> 100,> 100,> 100,> 100,
Cc1cc(C)c(S(=O)(=O)N2CCCN(S(=O)(=O)c3c(C)cc(C)cc3C)OCCCON(S(=O)(=O)c3c(C)cc(C)cc3C)CCCN(S(=O)(=O)c3c(C)cc(C)cc3C)OCCCO2)c(C)c1,> 100,> 100,> 100,> 100,> 100,> 100,> 100,> 100,> 100,> 100,> 100,> 100,> 100,> 100,> 100,> 100,> 100,> 100,> 100,
CNC(=S)N(C)C(=S)Nn1c(=O)c(C)nn(C)c1=S,> 100,,> 100,> 100,> 100,> 100,,> 100,,,> 100,> 100,,,> 100,> 100,> 100,> 100,> 100,> 100
Oc1ccc2ccccc2c1/C=C/c1ccc2c(Br)cc(Br)c(O)c2n1,24.7,36.2,20.3,26.5,25.1,14.5,10,13.6,23.4,49.4,15.4,31.8,26.7,14.5,21.7,41.4,24.7,19.5,35.5,
Cc1ccc(S(=O)(=O)N/N=C/C(=C/c2ccc(Cl)cc2)CC(/C=N/NS(=O)(=O)c2ccc(C)cc2)=C\c2ccc(Cl)cc2)cc1,7.38,14.2,38,48.1,> 100,13.9,12.2,34.2,8.98,21.5,6.62,20.2,68.4,12.6,35.5,9.11,26.8,4.38,12.4,
COc1ccc(/C=C(/C(=O)c2ccc(Cl)cc2)N2C=CC=CC2=C(C#N)C#N)cc1OC,4.75,19.1,38.4,11.4,32.1,22.9,15.2,22.3,4.2,26.3,4.64,11.5,5.69,16.9,32.6,8.59,27.5,5.29,13.4,
CC(=O)NC1C(OCc2ccccc2)OC(CO)C(O)C1OC(C)C(=O)NC(C)C(=O)NC(CCC(=O)NCCCNc1c2ccccc2nc2cccc([N+](=O)[O-])c12)C(N)=O (stereo not drawn),3.04,2.65,11.2,3.97,> 100,2.47,6.53,19.3,2.52,40.4,> 100,8.04,7.87,> 100,8.02,> 100,11.8,> 100,5.8,
CCN(CC)c1c(N(CC)CC)c(=O)c1=O,25.2,60.9,30.9,36.9,> 89.6,35.2,25.1,19,39.9,59.9,16.4,41.9,9.62,29.5,37.2,4.91,26.7,16.2,11.4,
COc1ccc(N=C2SC(=N/N=c3\sc4ccccc4n3C)SC2=Nc2ccc(OC)cc2)cc1,> 100,> 100,> 100,> 100,> 100,> 100,> 100,> 100,> 100,> 100,> 100,> 100,> 100,> 100,> 100,> 100,> 100,> 100,> 100,
O=[N+]([O-])c1cc2oc(COc3ccccc3)nc2cc1Cl,69.5,52.4,51.3,43.5,> 100,25.5,48.2,45.8,43.3,> 100,> 100,> 100,67.6,> 100,> 100,> 100,40.8,> 100,> 100,
C=C(C)C(CC=C(C)C)CC12CC(CC=C(C)C)C(C)(C)C(CC=C(C)C)(C(=O)C(Cc3ccc(O)c(O)c3)=C1O)C2=O (stereo not drawn),> 100,> 100,> 100,> 100,> 100,> 100,> 100,> 100,> 100,> 100,> 100,> 100,> 100,> 100,> 100,> 100,> 100,> 100,> 100,
CSc1nc2c(nc(C)c(=O)n2C2OCC(OC(C)=O)C(OC(C)=O)C2OC(C)=O)c(=O)[nH]1 (stereo not drawn),> 100,,,> 100,> 100,> 100,> 100,,> 100,,> 100,> 100,> 100,,> 100,> 100,> 100,> 100,> 100,> 100
COC(=O)C(C)(NC(=O)C(CC(=O)OC(C)(C)C)NC(=O)OC(C)(C)C)c1ccccc1 (stereo not drawn),> 100,> 100,> 100,> 100,> 100,> 100,> 100,> 100,> 100,> 100,> 100,> 100,> 100,> 100,> 100,> 100,> 100,> 100,> 100,
COc1ccc(CC2c3cc(Oc4cc(CC5c6cc(OC)c(OC)cc6CCN5C)ccc4O)c(OC)cc3CCN2C)cc1 (stereo not drawn),12,9.88,18.6,12.1,12.5,14.4,15.1,16.8,2.64,19.3,12.9,15.1,9.99,12.2,16.6,10.1,15.4,9.33,14.6,
NS(=O)(=O)c1nn2c(Br)c(-c3ccccc3)nc2s1,9.48,16.3,4.6,13.8,22.8,6.48,15.9,3.95,16.7,30.7,5.67,23.1,9.72,16,24.3,15.5,11.1,9.34,22.4,
Nc1nc(N)c2[nH]c(CNc3ccc(C(=O)O)cc3)nc2n1,> 100,> 100,> 100,> 100,> 100,> 100,> 100,> 100,> 100,> 100,> 100,> 100,> 100,> 100,> 100,> 100,> 100,> 100,> 100,
C[C@]12CC[C@H](O)CC1=CC[C@@H]1[C@@H]2CC[C@]2(C)C(=O)[C@@H](N3CCOCC3)C[C@@H]12,> 100,> 100,> 100,> 100,> 100,> 100,> 100,> 100,> 100,> 100,> 100,> 100,> 100,> 100,> 100,> 100,> 100,> 100,> 100,
CC(=O)c1c2c(cc3c1CC1(Cc4ccccc4C1=O)C3)CCC2 (stereo not drawn),59.1,64,72.4,74.5,> 100,23,52.7,> 100,> 100,> 100,29.1,68.4,66,44.3,> 100,39.1,> 100,95.9,49.5,
CCCCCCCCCCCCCCCCCCNc1ccn(C2OC(COP(=O)(O)OCC3OC(n4cc(C)c(=O)[nH]c4=O)CC3O)C(O)C2O)c(=O)n1 (stereo not drawn),25.9,33.7,42.1,30.7,29.8,28.1,39.7,31.5,32.6,42.4,25.7,31.3,33.2,> 100,28.2,37.3,31,31.9,62.8,
COc1ccc2nc3ccc(OC)cc3c(S(=O)CCCl)c2c1 (stereo not drawn),16.2,17.1,33.9,15.3,> 59.3,28.2,6.24,4.59,46.7,6.02,> 20.7,12.4,6.9,> 21.4,34.5,4.9,36.1,3.34,10.8,
COCCOCc1nc(C#N)c(N)o1,> 100,> 100,> 100,> 100,> 100,> 100,> 100,> 100,> 100,> 100,> 100,> 100,> 100,> 100,> 100,> 100,> 100,> 100,> 100,
CC(=O)Nc1ccc(C(=O)NN2C(=O)C(Cl)C2c2ccccc2)cc1 (stereo not drawn),> 100,,> 100,> 100,> 100,> 100,> 100,> 100,,,> 100,> 100,> 100,,> 100,,> 100,> 100,> 100,> 100
